Measurements taken from PMC3313936 (PLoS ONE, 2012).
Read-outs that look alike come from different tables or passages of the source.

Experiments:
CBM32-5 [1] = target: T1, CBM32-5 (Clostridium perfringens, UniProt A0A0H2YU91); details: 20 mM Tris-HCl pH 8.0; 20 °C (table; methods say 25 °C); n fixed at 1
T1 construct: gene CPF_0859

CBM32-5 [2] = target: T1, CBM32-5; details: 20 mM Tris-HCl pH 8.0; 20 °C (table; methods say 25 °C)
CBM32-3 = target: T2, CBM32-3 (Clostridium perfringens, UniProt A0A0H2YU91); details: 50 mM HEPES pH 7.5, 25 °C; one-site fit, n fixed at 1
T2 construct: gene CPF_0859

CBM32-4 = target: T3, CBM32-4 (Clostridium perfringens, UniProt A0A0H2YU91); details: 50 mM HEPES pH 7.5, 25 °C; one-site fit, n fixed at 1
T3 construct: gene CPF_0859

CBM32-5 [3] = target: T1, CBM32-5; details: co-crystallised with 10 mM ligand, pH 5.6
CBM32-5 [4] = target: T1, CBM32-5; details: glycan immobilised on array; labelled protein

## CC(=O)N[C@H]1[C@H](O[C@H]2[C@@H](O)[C@@H](CO)OC(O)[C@@H]2O)O[C@H](CO)[C@H](O)[C@@H]1O (stereo partly drawn) [GalNAc-β-1,3-Gal]
CBM32-5 [1]
  Ka (M^-1): 3.40 (±0.10)×10^3

## OC[C@H]1OC(O)[C@H](O)[C@@H](O)[C@H]1O (stereo partly drawn) [D-galactose]
CBM32-5 [2]
  Ka (M^-1): 1.69 (±0.05)×10^3

## OC[C@H]1O[C@@H](O[C@H]2[C@H](O)[C@@H](O)C(O)O[C@@H]2CO)[C@H](O)[C@@H](O)[C@H]1O (stereo partly drawn) [Lactose]
CBM32-5 [2]
  Ka (M^-1): 2.40 (±0.58)×10^3

## CC(=O)N[C@H]1[C@@H](O[C@@H]2[C@H](O)[C@@H](O)C(O)O[C@@H]2CO)O[C@H](CO)[C@@H](O)[C@@H]1O (stereo partly drawn) [GlcNAc-α-1,4-Gal]
CBM32-3
  association constant: 2.64 (±0.64)×10^4
CBM32-4
  association constant: 1.38 (±0.08)×10^4

## CC(=O)N[C@H]1[C@@H](OC[C@H](N)C(=O)O)O[C@H](CO)[C@H](O)[C@@H]1O [Tn antigen, N-acetyl-α-D-galactosaminyl-1-O-serine]
CBM32-5 [3]
  X-ray crystal structure of complex, 1.70 Å: 4a44 for CBM32-5 in complex with the Tn Antigen

## CC(=O)N[C@H]1[C@@H](O[C@@H]2[C@H](O)[C@@H](O[C@@H]3O[C@@H](C)[C@@H](O)[C@@H](O)[C@@H]3O)[C@H](O[C@H]3[C@H](O)[C@@H](NC(C)=O)C(O)O[C@@H]3CO)O[C@@H]2CO)O[C@H](CO)[C@H](O)[C@@H]1O (stereo partly drawn) [GalNAc-α-1,4(Fuc-α-1,2)-Gal-β-1,4-GlcNAc]
CBM32-5 [4]
  glycan microarray: this synthetic carbohydrate was clearly the top ligand from the array analysis

## CC(=O)N[C@H]1C(O)O[C@H](CO)[C@H](O)[C@@H]1O (stereo partly drawn) [D-GalNAc]
CBM32-5 [2]
  Ka (M^-1): 5.01 (±0.64)×10^3

## CC(=O)N[C@H]1C(O)O[C@H](CO)[C@H](O)[C@@H]1O[C@@H]1O[C@H](CO)[C@H](O)[C@H](O)[C@H]1O (stereo partly drawn) [Gal-β-1,3-GalNAc]
CBM32-5 [2]
  Ka (M^-1): 3.77 (±0.34)×10^3
